Source: patent publication US20260209260A1, “VECTORIZED NHC IRIDIUM(III) COMPLEXES AND USE THEREOF IN PHOTODYNAMIC THERAPY AND/OR DIAGNOSTIC” (CENTRE NATIONAL DE LA RECHERCHE SCIENTIFIQUE, priority 2022, published 2026)
Several values for one entry are separate records, joined by “and”; a condition that tells them apart may be missing. Equal values may be shown once. Read-outs that look alike come from different tables or passages of the source. Marks after values point to notes of the source that are not given here.

Assays:
[1] = Luminescence emission spectra and quantum yield; format: physicochemical; details: for ΦP emission phosphorescence quantum yield: room temperature, reference POPOP in hexane or rhodamine B in ethanol; for λem: CH2Cl2, room temperature, λexc 365 nm or 470 nm
Summary of the method: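 Relative luminescence quantum yields (Demas–Crosby) were derived from integrated emission areas of sample versus reference standard, with solvent refractive-index correction, on RT solutions. Emission spectra, fluorescence and phosphorescence, were taken for the complexes in CH2Cl2 at room temperature.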

[2] = system: NIH-3T3 fibroblast cells (non-tumor); experiment: Cell viability assay (MTT), dark and blue light; format: cell-based, Murine; details: for Photosensitizing index (PI): NIH-3T3, dark vs blue light; for Photosensitizing index (PI) NIH-3T3: dark vs blue light 458 nm
Summary of the method: (§1)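 MTT read-out at 570 nm after DMSO solubilization of formazan, 3–4 h MTT at 37 °C, 5% CO2. Treatment lasted 72 h, either fully in the dark or with 10 min irradiation after 8 h of dark incubation. Final DMSO fixed at 0.1% (v/v).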

[3] = system: MC3T3 osteoblast cells (non-tumor); experiment: Cell viability assay (MTT), dark and blue light; format: cell-based, Murine; details: for Photosensitizing index (PI): MC3T3, dark vs blue light; for Photosensitizing index (PI) MC3T3: dark vs blue light 458 nm
Summary of the method: as §1

[4] = UV/Vis absorption spectra; format: physicochemical; details: room temperature, air-saturated CH2Cl2 or CH2Cl2/MeOH (1:1), 50 μM; ε in brackets, sh = shoulder
Protocol: UV/Vis absorption spectra were recorded at RT on solutions contained in quartz cuvettes (optical pathlength 1 cm, Hellma®) with a PerkinElmer® UV/VIS/NIR spectrophotometer Lambda 950 and a PerkinElmer® detector UV/VIS/NIR Accessory 2D Detector Module.

[5] = Emission lifetime measurement; format: physicochemical
Summary of the method: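 Time-correlated single-photon counting with 0.5 ns resolution, using D2-lamp or 405 nm pulsed-diode-laser excitation, gave the lifetimes; quoted uncertainty is 5%.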

[6] = Lipophilicity: octanol-water partition coefficient, shake-flask method
Summary of the method: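 Octanol and water mutually pre-saturated for 24 h; compound ([…] stock in aqueous phase) partitioned against equal volume n-octanol, mixed 15 min, phases separated by centrifugation.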

T24 bladder cancer cells = experiment: Cell viability assay (MTT), dark and blue light; format: cell-based, Human; details: for Photosensitizing index (PI) T24: dark vs blue light 458 nm
Summary of the method: as §1

[7] = system: cancer cells (all tumor cell lines tested); experiment: Cell viability assay (MTT), summary over the cancer cell lines tested; format: cell-based, Human; details: for PI values, mean over cancer cells / PI values, median over cancer cells: dark vs blue light 458 nm
Protocol: Cells were grown in humidified incubators at 37° C. in 5% CO2. Murine MC3T3 osteoblast and NIH-3T3 fibroblast cells-used as non-tumor cell models-were cultured in a-MEM medium and DMEM medium supplemented with 10% fetal bovine serum (FBS) and 1% Penicillin/Streptomycin (P/S) antibiotics, respectively. Human T24 bladder, MGHU3 bladder, Scaber bladder, A549 lung, MCF7 breast, MiaPaCa2 pancreas cancer cells were cultured in DMEM medium supplemented with 10% FBS and 1% P/S antibiotics. […] Human Hela cervix and HepG2 liver cancer cells were cultured EMEM medium supplemented with 10% FBS and 1% P/S antibiotics.
MTT reagent (3-(4,5-dimethylthiazol-2-yl)-2,5-diphenyltetrazolium bromide) was used to determine cell death as originally described by Mosmann. Briefly, cells were seeded from 5,000 to 10,000 cells/well in 24-well plates (1 mL) depending on the cell type and allowed to attach overnight. The complexes were prepared in DMSO. The concentration of the complexes was calculated based on the elemental composition of the complexes determined by the elemental analyses. All cell viability experiments were carried out with a fixed concentration of 0.1% (v/v) DMSO. After 72 h of treatment, cells were incubated at 37° C. and 5% CO2 with 25 μL of MTT solution (5 mg/ml; Sigma-Aldrich) in 24-well plates for 3 to 4 h. After solubilization with 500 μL of DMSO, formazan was quantified spectrophotometrically with a microplate reader at 570 nm absorbance (ClarioSTAR, BMG LabTech). […] All the results were calculated from data obtained in at least three independent experiments performed in triplicate.
Two sets of experiments were conducted in parallel for each complex to be studied:
1. The cells were incubated with the different complexes (in the dark) for 72 h.
2. The cells were incubated for 8 h with the different complexes (in the dark), then irradiated for 10 min, followed by an incubation in the dark up to 72 h.

[8] = 8 h in the dark, blue light 458 nm 10 min, then dark up to 72 h, read-out: GI50 NIH-3T3 Blue
[9] = NIH-3T3, blue light, read-out: GI50
[10] = in the dark, 72 h, read-out: GI50 NIH-3T3 Dark
[11] = 8 h in the dark, blue light 458 nm 10 min, then dark up to 72 h, read-out: GI50 MC3T3 Blue
[12] = MC3T3, blue light, read-out: GI50
[13] = in the dark, 72 h, read-out: GI50 MC3T3 Dark
[14] = 8 h in the dark, blue light 458 nm 10 min, then dark up to 72 h, read-out: GI50 T24 Blue
[15] = in the dark, 72 h, read-out: GI50 T24 Dark

| Structure (SMILES) | ΦP emission phosphorescence quantum yield [1] [%] | GI50 [2, 8] | GI50 [2, 9] [µM] | Photosensitizing index (PI) [2] | GI50 ([2]; NIH-3T3, dark, read-out: GI50) [µM] | GI50 [2, 10] [µM] | GI50 [3, 11] [µM] | GI50 [3, 12] [µM] | λmax (nm) ε (M^−1 · cm^−1) [4] | τ1 emission lifetime [5] [ns] | Log P [6] | Photosensitizing index (PI) NIH-3T3 [2] | Photosensitizing index (PI) MC3T3 [3] | GI50 [3, 13] | GI50 (T24 bladder cancer cells; [14]) [µM] | Photosensitizing index (PI) T24 (T24 bladder cancer cells) | GI50 (T24 bladder cancer cells; [15]) [µM] | PI values, mean over cancer cells [7] [fold] | PI values, median over cancer cells [7] [fold] | λem [1] | further results |
| --- | --- | --- | --- | --- | --- | --- | --- | --- | --- | --- | --- | --- | --- | --- | --- | --- | --- | --- | --- | --- | --- |
| F[P-](F)(F)(F)(F)F.O=C(O)CC[C@H](NC(=O)N[C@@H](CCCCNC(=O)CCn1cc[n+]2[c]1[Ir-3]13([c]4c(sc5ccccc45)-c4cccc[n+]41)([c]1c(sc4ccccc14)-c1cccc[n+]13)[n+]1ccccc1-2)C(=O)O)C(=O)O [III-j] | 3.0 | 10.8 µM | 10.8 | >9.3 | > 100 | > 100 | 12.5 | 12.5 | 324 (26900), 343 (sh)^b (24560), 428 (10800) nm (M^−1 · cm^−1) | 197 | −0.38 ± 0.03 |  |  |  |  |  |  |  |  |  | Photosensitizing index (PI) [3]: >20; GI50 ([3]; MC3T3, dark, read-out: GI50): > 250 µM |
| F[P-](F)(F)(F)(F)F.O=C(CCCC[C@@H]1SC[C@@H]2NC(=O)N[C@@H]21)NCCCn1cc[n+]2[c]1[Ir-3]13([c]4ccccc4-c4sc5ccccc5[n+]41)([c]1ccccc1-c1sc4ccccc4[n+]13)[n+]1ccccc1-2 [I-k] | 7.0 | 31.1 µM |  |  |  | 75.8 | 19.2 |  | 321 (25835), 372 (sh) (7480), 406 (6130) nm (M^−1 · cm^−1) | 322 | 0.87 ± 0.03 | 2.4 | 1.3 | 25.8 µM | 0.97 | 19.3 | 18.7 | 12.9 | 12.2 |  | SI (vs MC3T3) T24 Dark (T24 bladder cancer cells; dark): 1.4; SI (vs NIH-3T3) T24 Dark (T24 bladder cancer cells; dark): 4.1; selectivity for cancer cells over non-tumor cells, in words [7]: most selective effects under irradiated conditions; GI50 values, range over tumor cell lines, dark ([7]; in the dark): little toxicity against tumor cells under dark conditions |
| F[P-](F)(F)(F)(F)F.O=C(O)CC[C@H](NC(=O)N[C@@H](CCCCNC(=O)CCn1cc[n+]2[c]1[Ir-3]13([c]4cccc5ccc6ccc[n+]1c6c45)([c]1cccc4ccc5ccc[n+]3c5c14)[n+]1ccccc1-2)C(=O)O)C(=O)O [III-i] |  |  | 55.8 | >1.8 | > 100 | > 100 |  | 40.6 | 317 (19830), 412 (5510) nm (M^−1 · cm^−1) | 227 | 0.60 ± 0.01 |  |  | 250 µM |  |  |  |  |  | 548 nm | Photosensitizing index (PI) [3]: 6.2; GI50 ([3]; MC3T3, dark, read-out: GI50): 250 µM |
| COC(=O)c1ccc2[n+](c1)[Ir-3]13([c]4ccccc4-2)([c]2ccccc2-c2ccc(C(=O)OC)c[n+]21)[c]1n(CCCNC(=O)CCCC[C@@H]2SC[C@@H]4NC(=O)N[C@@H]42)cc[n+]1-c1cccc[n+]13.F[P-](F)(F)(F)(F)F [I-e] | 3.7 | 135 µM |  |  |  | > 250 | 41.1 |  | 310 (sh) (19500), 365 (sh) (4690), 432 (4155) nm (M^−1 · cm^−1) | 224 | 0.25 ± 0.04 | >1.9 | 1.4 | 58.8 µM and 56.8 µM | 5.6 | 17.2 | 96 | 8.4 | 6.2 | 511-550 nm |  |
| F[P-](F)(F)(F)(F)F.O=C(CCCC[C@@H]1SC[C@@H]2NC(=O)N[C@@H]21)NCCCn1cc[n+]2[c]1[Ir-3]13([c]4ccccc4-c4ccc5ccccc5[n+]41)([c]1ccccc1-c1ccc4ccccc4[n+]13)[n+]1ccccc1-2 [I-g] | <0.1 | 81.7 µM and 61.7 µM |  |  |  | 110 | 31.4 |  | 336 (19000), 437 (4600) nm (M^−1 · cm^−1) | 203 | 1.26 ± 0.04 | 1.8 | 1.8 | 85.2 µM and 55.2 µM | 1.1 | 16.9 | 18.6 | 7.5 | 6.0 | 593-652 nm | SI (vs NIH-3T3) T24 Blue (T24 bladder cancer cells; blue light 458 nm): 58.1; selectivity for cancer cells over non-tumor cells, in words [7]: most selective effects under irradiated conditions |
| F[P-](F)(F)(F)(F)F.O=C(CCCC[C@@H]1SC[C@@H]2NC(=O)N[C@@H]21)NCCCn1cc[n+]2[c]1[Ir-3]13([c]4ccccc4-c4c5ccccc5cc[n+]41)([c]1ccccc1-c1c4ccccc4cc[n+]13)[n+]1ccccc1-2 [I-h] | 3.0 | 10.4 µM |  |  |  | 101 | 5 |  | 337 (sh) (12520), 352 (sh) (11890), 380 (sh) (8100), 436 (4855) nm (M^−1 · cm^−1) | 202 |  | 9.7 | 8.4 | 42.2 µM | 0.58 | 24.0 | 13.9 | 19.0 | 19.3 |  | Log P ([6]; n-octanol/water, shake-flask, mean of at least three determinations): 0.87 ± 0.02 |
